The experiment deals with T1, TBK1 (Homo sapiens, UniProt Q9UHD2).
T1 construct: purchased Promega (Invitrogen is also named in the same bracket) V4158; PR8031B; V3991 (not assigned to the two kinases)
T1 sequence (Q9UHD2 1-729): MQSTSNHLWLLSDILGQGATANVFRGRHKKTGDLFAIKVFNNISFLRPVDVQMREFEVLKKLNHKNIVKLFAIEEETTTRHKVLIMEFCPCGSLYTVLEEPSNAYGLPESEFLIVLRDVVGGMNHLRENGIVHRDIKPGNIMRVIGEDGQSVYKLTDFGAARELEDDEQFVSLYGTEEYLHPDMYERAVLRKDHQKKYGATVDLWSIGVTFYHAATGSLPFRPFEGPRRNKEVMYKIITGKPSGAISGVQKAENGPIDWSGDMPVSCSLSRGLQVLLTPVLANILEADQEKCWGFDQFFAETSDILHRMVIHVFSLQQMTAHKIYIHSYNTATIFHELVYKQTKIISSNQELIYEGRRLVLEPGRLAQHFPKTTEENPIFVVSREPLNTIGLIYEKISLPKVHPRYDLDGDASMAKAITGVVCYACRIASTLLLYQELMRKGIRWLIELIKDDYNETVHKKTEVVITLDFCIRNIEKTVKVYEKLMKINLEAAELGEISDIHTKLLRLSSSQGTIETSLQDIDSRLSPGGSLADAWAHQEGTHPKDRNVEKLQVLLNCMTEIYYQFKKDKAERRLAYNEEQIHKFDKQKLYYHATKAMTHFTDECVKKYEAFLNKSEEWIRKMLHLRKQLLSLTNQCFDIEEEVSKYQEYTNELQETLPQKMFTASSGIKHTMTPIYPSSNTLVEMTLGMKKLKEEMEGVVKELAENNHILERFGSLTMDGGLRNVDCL
Briefly: ADP-Glo Kinase Assay, inhibition activity on TBK1. Type of experiment: biochemical. The method in brief: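 Kinase activity measured with the ADP-Glo luminescent ADP-detection kit per manufacturer's protocol, using IKKε or TBK1 kinase enzyme systems. Reaction buffer: 40 mM Tris (pH 7.5), 20 mM MgCl2, 0.1 mg/mL BSA; luminescence read on a luminometer.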
(ADP-Glo first removes unused ATP, then detects ADP through luciferase.)
A word on the IC50: it is the point on the concentration scale where inhibition reaches its midpoint. Read a high IC50 as a need for much substance. `NS(=O)(=O)c1ccc(-c2cnc3[nH]cc(C4=CCN(C(=O)OC5CCCC5)CC4)c3c2)cc1` [Example 176, Cyclopentyl 4-(5-(4-sulfamoylphenyl)-1H-pyrrolo[2,3-b]pyridin-3-yl)-5,6-dihydropyridine-1(2H)-carboxylate] returned an IC50 of 52 nM. For the molecule `CNS(=O)(=O)c1cccc(-c2cnc3[nH]cc(C4=CCN(C(=O)OC5CCCC5)CC4)c3c2)c1` [Example 177, Cyclopentyl 4-(5-(3-(N-methylsulfamoyl)phenyl)-1H-pyrrolo[2,3-b]pyridin-3-yl)-5,6-dihydropyridine-1(2H)-carboxylate], 97 nM corresponded to half-maximal inhibition (IC50). Against the preceding molecule, the IC50 is about 1.9-fold higher. In turn, `CNS(=O)(=O)c1ccc(-c2cnc3[nH]cc(C4=CCN(C(=O)OC5CCCC5)CC4)c3c2)cc1` [Example 178, Cyclopentyl 4-(5-(4-(N-methylsulfamoyl)phenyl)-1H-pyrrolo[2,3-b]pyridin-3-yl)-5,6-dihydropyridine-1(2H)-carboxylate] displayed an IC50 of 170 nM.

Consider `O=C(OC1CCCC1)N1CC=C(c2c[nH]c3ncc(-c4cccc(S(=O)(=O)N5CCOCC5)c4)cc23)CC1` [Example 180, Cyclopentyl 4-(5-(3-(morpholinosulfonyl)phenyl)-1H-pyrrolo[2,3-b]pyridin-3-yl)-5,6-dihydropyridine-1(2H)-carboxylate], for which the half-inhibitory concentration (IC50) was determined as 400 nM. To `O=C(OC1CCCC1)N1CC=C(c2c[nH]c3ncc(-c4ccc(S(=O)(=O)N5CCOCC5)cc4)cc23)CC1` [Example 181, Cyclopentyl 4-(5-(4-(morpholinosulfonyl)phenyl)-1H-pyrrolo[2,3-b]pyridin-3-yl)-5,6-dihydropyridine-1(2H)-carboxylate] belongs 370 nM. In the case of `COc1ccc(-c2cnc3[nH]cc(C4=CCN(C(=O)OC5CCCC5)CC4)c3c2)cc1S(=O)(=O)N1CCOCC1` [Example 182, Cyclopentyl 4-(5-(4-methoxy-3-(morpholinosulfonyl)phenyl)-1H-pyrrolo[2,3-b]pyridin-3-yl)-5,6-dihydropyridine-1(2H)-carboxylate], the half-inhibitory concentration (IC50) was determined as 180 nM. Compared with the last molecule, the IC50 is about 2.1-fold lower.

For the molecule `O=C(OC1CCCC1)N1CC=C(c2c[nH]c3ncc(-c4ccc(C(=O)N5CCOCC5)cc4)cc23)CC1` [Example 183, Cyclopentyl 4-(5-(4-(morpholine-4-carbonyl)phenyl)-1H-pyrrolo[2,3-b]pyridin-3-yl)-5,6-dihydropyridine-1(2H)-carboxylate], half-maximal inhibition (IC50) was put at 39 nM. The molecule `O=C(OC1CCCC1)N1CC=C(c2c[nH]c3ncc(-c4cccc(C(=O)N5CCOCC5)c4)cc23)CC1` [Example 184, Cyclopentyl 4-(5-(3-(morpholine-4-carbonyl)phenyl)-1H-pyrrolo[2,3-b]pyridin-3-yl)-5,6-dihydropyridine-1(2H)-carboxylate] had a 50% inhibitory concentration (IC50) of 100 nM. Compared with the last molecule, the IC50 is about 2.6-fold higher. The result for `O=C(OC1CCCC1)N1CC=C(c2c[nH]c3ncc(-c4csc(CN5CCOCC5)c4)cc23)CC1` [Example 185, Cyclopentyl 4-(5-(5-(morpholinomethyl)thiophen-3-yl)-1H-pyrrolo[2,3-b]pyridin-3-yl)-5,6-dihydropyridine-1(2H)-carboxylate] reads 81 nM. To `O=C(OC1CCCC1)N1CC=C(c2c[nH]c3ncc(-c4ccc(CN5CCOCC5)s4)cc23)CC1` [Example 186, Cyclopentyl 4-(5-(5-(morpholinomethyl)thiophen-2-yl)-1H-pyrrolo[2,3-b]pyridin-3-yl)-5,6-dihydropyridine-1(2H)-carboxylate] belongs 160 nM; to `COc1ccc(-c2cnc3[nH]cc(C4=CCCN(C(=O)OC(C)(C)C)CC4)c3c2)cc1OC` [Example 187, tert-Butyl 4-(5-(3,4-dimethoxyphenyl)-1H-pyrrolo[2,3-b]pyridin-3-yl)-2,3,6,7-tetrahydro-1H-azepine-1-carboxylate], 3300 nM. As for `COc1ccc(-c2cnc3[nH]cc(C4=CCN(C(=O)OC(C)(C)C)CCC4)c3c2)cc1OC` [Example 188, tert-Butyl 5-(5-(3,4-dimethoxyphenyl)-1H-pyrrolo[2,3-b]pyridin-3-yl)-2,3,4,7-tetrahydro-1H-azepine-1-carboxylate], 4900 nM corresponded to half-maximal inhibition (IC50). To `O=C(c1cccs1)N1CC=C(c2c[nH]c3ncc(-c4ccc(F)c(F)c4)cc23)CC1` [Example 189, (4-(5-(3,4-Difluorophenyl)-1H-pyrrolo[2,3-b]pyridin-3-yl)-5,6-dihydropyridin-1(2H)-yl)(thiophen-2-yl)methanone] belongs over 10000 nM; to `COc1ccc(-c2cnc3[nH]cc(C4=CCN(C(=O)c5cccs5)CC4)c3c2)cc1OC` [Example 191, (4-(5-(3,4-Dimethoxyphenyl)-1H-pyrrolo[2,3-b]pyridin-3-yl)-5,6-dihydropyridin-1(2H)-yl)(thiophen-2-yl)methanone], 110 nM. The result for `COc1ccc(-c2cnc3[nH]cc(C4=CCN(C(=O)c5cccs5)CC4)c3c2)cc1F` [Example 192, (4-(5-(3-Fluoro-4-methoxyphenyl)-1H-pyrrolo[2,3-b]pyridin-3-yl)-5,6-dihydropyridin-1(2H)-yl)(thiophen-2-yl)methanone] reads 460 nM. To `CS(=O)(=O)c1cccc(-c2cnc3[nH]cc(C4=CCN(C(=O)c5cccs5)CC4)c3c2)c1` [Example 193, (4-(5-(3-(Methylsulfonyl)phenyl)-1H-pyrrolo[2,3-b]pyridin-3-yl)-5,6-dihydropyridin-1(2H)-yl)(thiophen-2-yl)methanone] belongs 36 nM; to `CS(=O)(=O)c1ccc(-c2cnc3[nH]cc(C4=CCN(C(=O)c5cccs5)CC4)c3c2)cc1` [Example 194, (4-(5-(4-(methylsulfonyl)phenyl)-1H-pyrrolo[2,3-b]pyridin-3-yl)-5,6-dihydropyridin-1(2H)-yl)(thiophen-2-yl)methanone], over 10000 nM.

As for `CCS(=O)(=O)c1cccc(-c2cnc3[nH]cc(C4=CCN(C(=O)c5cccs5)CC4)c3c2)c1` [Example 195, (4-(5-(3-(ethylsulfonyl)phenyl)-1H-pyrrolo[2,3-b]pyridin-3-yl)-5,6-dihydropyridin-1(2H)-yl)(thiophen-2-yl)methanone], the 50% inhibitory concentration (IC50) turned out to be 61 nM. Regarding `O=C(c1cccs1)N1CC=C(c2c[nH]c3ncc(-c4ccc(S(=O)(=O)C5CC5)cc4)cc23)CC1` [Example 196, (4-(5-(4-(cyclopropylsulfonyl)phenyl)-1H-pyrrolo[2,3-b]pyridin-3-yl)-5,6-dihydropyridin-1(2H)-yl)(thiophen-2-yl)methanone], the 50% inhibitory concentration (IC50) turned out to be 250 nM.

The molecule `NS(=O)(=O)c1ccc(-c2cnc3[nH]cc(C4=CCN(C(=O)c5cccs5)CC4)c3c2)cc1` [Example 197, 4-(3-(1-(thiophene-2-carbonyl)-1,2,3,6-tetrahydropyridin-4-yl)-1H-pyrrolo[2,3-b]pyridin-5-yl)benzensulfonamide] returned a half-inhibitory concentration (IC50) of 28 nM. In the case of `NS(=O)(=O)c1cccc(-c2cnc3[nH]cc(C4=CCN(C(=O)c5cccs5)CC4)c3c2)c1` [Example 198, 3-(3-(1-(thiophene-2-carbonyl)-1,2,3,6-tetrahydropyridin-4-yl)-1H-pyrrolo[2,3-b]pyridin-5-yl)benzensulfonamide], the IC50 stood at 15 nM. This IC50 is about 1.9-fold lower than that of the molecule before.

As for `CNS(=O)(=O)c1cccc(-c2cnc3[nH]cc(C4=CCN(C(=O)c5cccs5)CC4)c3c2)c1` [Example 199, N-methyl-3-(3-(1-(thiophene-2-carbonyl)-1,2,3,6-tetrahydropyridin-4-yl)-1H-pyrrolo[2,3-b]pyridin-5-yl)benzensulfonamide], it took 34 nM to reach half-maximal inhibition (IC50). `CNS(=O)(=O)c1ccc(-c2cnc3[nH]cc(C4=CCN(C(=O)c5cccs5)CC4)c3c2)cc1` [Example 200, N-methyl-4-(3-(1-(thiophene-2-carbonyl)-1,2,3,6-tetrahydropyridin-4-yl)-1H-pyrrolo[2,3-b]pyridin-5-yl)benzensulfonamide]: the half-maximal inhibitory concentration (IC50) is 45 nM. This IC50 and that of the molecule before are within 1.5-fold of each other.

For the molecule `CS(=O)(=O)Nc1cccc(-c2cnc3[nH]cc(C4=CCN(C(=O)c5cccs5)CC4)c3c2)c1` [Example 201, N-(3-(3-(1-(thiophene-2-carbonyl)-1,2,3,6-tetrahydropyridin-4-yl)-1H-pyrrolo[2,3-b]pyridin-5-yl)phenyl)methansulfonamide], the IC50 was over 10000 nM. The result for `O=C(c1cccs1)N1CC=C(c2c[nH]c3ncc(-c4cccc(S(=O)(=O)N5CCOCC5)c4)cc23)CC1` [Example 202, (4-(5-(3-(morpholinosulfonyl)phenyl)-1H-pyrrolo[2,3-b]pyridin-3-yl)-5,6-dihydropyridin-1(2H)-yl)(thiophen-2-yl)methanone] reads 230 nM.

Regarding `COc1ccc(-c2cnc3[nH]cc(C4=CCN(C(=O)c5cccs5)CC4)c3c2)cc1S(=O)(=O)N1CCOCC1` [Example 203, (4-(5-(4-methoxy-3-(morpholinosulfonyl)phenyl)-1H-pyrrolo[2,3-b]pyridin-3-yl)-5,6-di hydropyridin-1(2H)-yl)(thiophen-2-yl)methanone], 39 nM corresponded to half-maximal inhibition (IC50). This IC50 is about 5.9-fold lower than that of the molecule before.

The values are drawn from patent US10239873B2, “7-azaindole or 4,7-diazaindole derivatives as IKKϵ epsilon and TBK1 inhibitor and pharmaceutical composition comprising same” (GREEN CROSS CORPORATION, priority 2015, dated 2019).
